12 compounds from US20160031868A1, “BENZIMIDAZOLONE DERIVATIVES AS BROMODOMAIN INHIBITORS” (GILEAD SCIENCES, INC., priority 2013, published 2016) can be followed below.

The structures appear in SMILES notation.

Data set [1] has as its target T1, BRD4-1 (Homo sapiens, UniProt O60885).
T1 construct: made in house; host or cells: Escherichia coli
The data set is described as follows: Biochemical ALPHA assay: binding of BRD4_1 to acetylated histone H4 peptide. The conditions noted are these: 200 nM H4 peptide, 15 nM BRD4_1, 60 min at 25 °C; geometric mean of min. four determinations. As for the experimental part: Binding of the bromodomain BRD4_I to an acetylated histone H4 peptide was measured using a bead based Amplified Luminescent Proximity Homogeneous Assay (ALPHA). The synthetic peptide containing amino acids 1-18 of histone H4 was acetylated at lysine 5, 8, 12, 16 and conjugated to biotin ([…]-GSGSK-biotin) was purchased from Millipore. BRD4_I was expressed and purified from Escherichia coli as an N-terminal Hiss-tagged protein. Nickel-Chelate ALPHA acceptor beads (Perkin Elmer) were used to specifically bind BRD4—1 and ALPHA streptavidin donor beads (Perkin Elmer) were used because they specifically recognized the biotinylated H4 peptide. […] Assays were performed in 50 mM Hepes (pH 7.5), 150 mM NaCl, 0.1 mg/ml BSA, 0.01% (v/v) Brij, 0.5% (v/v) DMSO, 200 nM H4 peptide and 15 nM of BRD4—1 protein. After an assay reaction time of 60 minutes at 25° C., binding was measured with 20 µg/ml streptavidin donor beads and 20 μg/ml nickel-chelate acceptor beads. ALPHA signal was detected on an Envision plate reader ([…]; Em: 570 nm; Ex time: 180 ms). Data were normalized based on a positive (2 μM I-BET) and negative (DMSO) controls and IC50 values were calculated from the fit of the dose-response curves to a four-parameter equation. All IC50 values represent geometric mean values of a minimum of four determinations. These assays generally produced results within 3-fold of the reported mean.

Data set [2] concerns the target T1, BRD4-1. The experiment in a line: Biochemical HTRF (TR-FRET) assay: BRD4-1 binding to acetylated histone H4 peptide. To be noted: 200 nM H4 peptide, 60 nM BRD4-1, 60 min at 25 °C; geometric mean; read-out: IC50 HTBS BRD4-1 HTRF. As for the experimental part:
(§1) Binding of the two tandem bromodomains, BRD4 I and BRD4—2, to an acetylated histone H4 peptide were measured using a homogeneous time resolved fluorescence resonance energy transfer (TR-FRET) assay. The synthetic peptide containing amino acids 1-18 of histone H4 was acetylated at lysine 5, 8, 12, 16 and conjugated to biotin ([…]-GSGSK-biotin) was purchased from Millipore. BRD4_I and BRD4—2 were expressed and purified from Escherichia coli as N-terminal His6-tagged proteins. An XL665 labeled anti-His antibody (Cisbio) was used to specifically bind BRD4 and a cryptate labeled streptavidin protein was used because it specifically recognized the biotinylated H4 peptide. […] Assays were performed in 50 mM Hepes (pH 7.5), 150 mM NaCl, 0.1 mg/ml BSA, 0.01% (v/v) Brij, 0.5% (v/v) DMSO and 200 nM H4 peptide at the following concentrations for each BRD4 isoform: 60 nM BRD4—1 and 120 nM BRD4—2. After an assay reaction time of 60 minutes at 25° C., binding was measured with 2 nM cryptate labeled streptavidin and 10 nM anti-His-XL665 antibody. TR-FRET signal was detected on an Envision plate reader (Ex: 320 nm; Em: 615/665 nm; 100 μs delay and 200 μs read window). Data were normalized based on a positive (2 μM I-BET) and negative (DMSO) controls and IC50 values were calculated from the fit of the dose-response curves to a four-parameter equation. All IC50 values represent geometric mean values of a minimum of four determinations. These assays generally produced results within 3-fold of the reported mean.

The target of another data set is T2, BRD4-2 (Homo sapiens, UniProt O60885).
T2 construct: made in house; host or cells: Escherichia coli
The data set is described as follows: Biochemical HTRF (TR-FRET) assay: BRD4-2 binding to acetylated histone H4 peptide. To be noted: 200 nM H4 peptide, 120 nM BRD4-2, 60 min at 25 °C; geometric mean; read-out: IC50 HTBS BRD4-2 HTRF. As for the experimental part:
as §1

A short description of data set [3]: MT-4 proliferation assay in 384-well format (Cell Titer Glo). To be noted: human, MT-4 cells, Table 1, 50% decrease in luminescence signal, read-out: CC50 MT4 384. The format is cell-based, human. As for the experimental part:
(§2) Compounds were tested in a standardized high-throughput 384-well assay format. Each compound was serially diluted 3-fold in 100% DMSO in polypropylene 384-well plates using a Biomek FX Workstation, and 0.4 μL compound added to an assay plate containing 40 μL RPMI media. Compounds were arranged in a horizontal pattern, with 10 concentrations per compound, and 8 compounds added per plate. Due to low DMSO tolerability, the final DMSO concentration never exceeded 0.5% (v/v). Each assay plate contained 10 μM Puromycin and 0.5% DMSO in RPMI-1640 as positive and negative controls respectively. MT-4 cells (HTLV-1 transformed, human T lymphoblastoid cells, NIH Aids Reagent program) were added in volumes of 35 μL per well and 2,000 cells per well using a Biotek uFlow Workstation (Biotek, Winooski, Vt.), and the plates subsequently incubated for 5 days at 37° C. in an incubator set at 5% CO2 and 90% humidity.
(§3) After 5 days, 22 μL Cell Titer Glo (Promega) was added to the assay plates with a Biotek uFlow Workstation. Plates were subsequently placed on a Perkin Elmer Envision Plate Reader for 5 minutes before the luminescence signal was read. CC50 values were calculated from the compound concentration that caused a 50% decrease in luminescence signal, a measure of toxicity, and calculated by non-linear regression using Pipeline Pilot software (Accelrys, San Diego, Calif.).

For a further data set, the system named is MT-4 cells. Described as above. The format is cell-based, human. The conditions noted are these: Table 1, 5 days, 50% decrease in luminescence signal, read-out: CC50 MT4 384. As for the experimental part: as §2, §3

As for `Cc1ccc2ncccc2c1-c1cc(-c2c(C)noc2C)cc2[nH]c(=O)[nH]c12` (racemic) [Example 2, 6-(3,5-dimethylisoxazol-4-yl)-4-(6-methylquinolin-5-yl)-1H-benzo[d]imidazol-2(3H)-one], the IC50 came out at 30.8 nM at BRD4-1 [1], 135 nM on BRD4-1 [2] and 119 nM on BRD4-2. Moreover, the CC50 at 5 days in data set [3] was 19 nM.
On BRD4-1 [1], `Cc1ccc2ncccc2c1-c1cc(-c2c(C)noc2C)cc2[nH]c(=O)[nH]c12` (single isomer, unassigned) [Example 13] returned an IC50 of 45.2 nM. The CC50 with MT-4 cells came to 51.6 nM.
On to `Cc1ccc2ncccc2c1-c1cc(-c2c(C)noc2C)cc2[nH]c(=O)[nH]c12` (single isomer, unassigned) [Example 14], for which, on BRD4-1 [1], the IC50 amounted to 14 nM. Further, in the data set with MT-4 cells, the CC50 is 9.54 nM.
`Cc1noc(C)c1-c1cc(-c2cccnc2-c2ccccc2)c2[nH]c(=O)[nH]c2c1` [Example 4, 6-(3,5-dimethylisoxazol-4-yl)-4-(2-phenylpyridin-3-yl)-1H-benzo[d]imidazol-2(3H)-one]: the 50% inhibitory concentration (IC50) is 37.2 nM at BRD4-1 [1], 119 nM at BRD4-1 [2] and 141 nM on BRD4-2. For the same compound, the CC50 at 5 days in data set [3] was determined as 103 nM.
As for `Cc1cnn(C)c1-c1cc(-c2c(C)noc2C)cc2[nH]c(=O)[nH]c12` [Example 5], the IC50 at BRD4-1 [1] is 234 nM; at BRD4-1 [2], 350 nM; at BRD4-2, 144 nM. In data set [3], the CC50 at 5 days is 233 nM.
For `Cc1noc(C)c1-c1cc(-c2cccc3c2CCC(=O)N3C)c2[nH]c(=O)[nH]c2c1` [Example 6, 5-(6-(3,5-dimethylisoxazol-4-yl)-2-oxo-2,3-dihydro-1H-benzo[d]imidazol-4-yl)-1-methyl-3,4-dihydroquinolin-2(1H)-one] the same measures were 46.8 nM, 132 nM, 108 nM and 53.9 nM.
Consider `Cc1ccc2ncccc2c1-c1cc(-c2c(C)noc2C)cc2[nH]c(=O)n(C)c12` [Example 7, 5-(3,5-dimethylisoxazol-4-yl)-1-methyl-7-(6-methylquinolin-5-yl)-1H-benzo[d]imidazol-2(3H)-one], for which the IC50 on BRD4-1 [1] came out at 37.3 nM; on BRD4-1 [2], 121 nM; at BRD4-2 it was 101 nM. Besides, the CC50 at 5 days in data set [3] is 17.5 nM.
Consider `Cc1cnn(C)c1-c1cc(-c2c(C)noc2C)cc2[nH]c(=O)n(C)c12` [Example 8, 7-(1,4-dimethyl-1H-pyrazol-5-yl)-5-(3,5-dimethylisoxazol-4-yl)-1-methyl-1H-benzo[d]imidazol-2(3H)-one], for which the concentration for half-maximal inhibition (IC50) is 241 nM on BRD4-1 [1], 511 nM at BRD4-1 [2] and 168 nM on BRD4-2. Besides, the CC50 at 5 days in data set [3] amounted to 117 nM.
For `Cc1noc(C)c1-c1cc(-c2c(C)noc2C)c2c(c1)[nH]c(=O)n2C` [Example 9] the same measures were 270 nM, 497 nM, 227 nM and 204 nM.
The like results for `Cc1noc(C)c1-c1cc(-c2c(C)noc2C)c2oc(=O)[nH]c2c1` [Example 10, 5,7-bis(3,5-dimethylisoxazol-4-yl)benzo[d]oxazol-2(3H)-one] were, in that order, 196 nM, 313 nM, 396 nM and 1030 nM.
For `Cc1ccc2ncccc2c1-c1cc(-c2c(C)noc2C)cc2[nH]c(=O)oc12` [Example 11, 5-(3,5-dimethylisoxazol-4-yl)-7-(6-methylquinolin-5-yl)benzo[d]oxazol-2(3H)-one] the same measures were 222 nM, 438 nM, 174 nM and 421 nM.
With `Cc1noc(C)c1-c1cc(-c2cccnc2-c2ccccc2)c2oc(=O)[nH]c2c1` [Example 12, 5-(3,5-dimethylisoxazol-4-yl)-7-(2-phenylpyridin-3-yl)benzo[d]oxazol-2(3H)-one], the IC50 is 233 nM at BRD4-1 [1], 316 nM on BRD4-1 [2] and 314 nM on BRD4-2. Besides, the CC50 at 5 days in data set [3] was found to be 761 nM.
